Results: ChEMBL document CHEMBL1133398, “Mechanism-based inactivation of thymidylate synthase by 5-(3-fluoropropyn-1-yl)-2'-deoxyuridine 5'-phosphate” (Bioorg Med Chem Lett, 2000)
pKi: −log10 of the molar value.

Experiments:
[1] = Half life was determined; format: ADME; details: rat
Thymidylate synthase = molecular target: T1, Thymidylate synthase (Lactobacillus casei, UniProt P00469); assay: The compound was evaluated for the binding affinity against Lactobacillus casei dTMP synthase using spectrophotometric assay; design: species or system Lacticaseibacillus casei
T1 sequence (P00469 whole entry): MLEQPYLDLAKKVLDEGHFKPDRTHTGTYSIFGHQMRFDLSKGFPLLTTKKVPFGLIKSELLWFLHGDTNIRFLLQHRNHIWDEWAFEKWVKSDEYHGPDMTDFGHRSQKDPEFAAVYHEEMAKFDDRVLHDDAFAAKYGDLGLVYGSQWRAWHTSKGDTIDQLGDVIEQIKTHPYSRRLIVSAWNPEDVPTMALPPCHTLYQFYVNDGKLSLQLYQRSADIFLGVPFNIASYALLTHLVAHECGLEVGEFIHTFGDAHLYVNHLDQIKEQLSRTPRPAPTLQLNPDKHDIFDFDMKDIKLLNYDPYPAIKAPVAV

- half-life [1]: < 1 min
- pKi (Thymidylate synthase): 7.83
SMILES: O=c1[nH]c(=O)n([C@H]2C[C@H](O)[C@@H](COP(=O)(O)O)O2)cc1C#CCF
